Earlier results on one molecule are cited in patent publication US6380175B1, “Method for enhancement of delivery of THC by the administration of its prodrugs via the nasal route” (New Millennium Pharmaceutical Research, Inc., priority 1999, dated 2002).

Molecules are shown by their SMILES.

For the series the following is noted: room temperature.

For the molecule `CCCCCc1cc(O)c2c(c1)OC(C)(C)C1CCC(C)=CC21` (stereo not shown) [THC, Δ-9-tetrahydrocannabinol], the aqueous solubility entry is “very poor aqueous solubility”.
